# From US20240217978A1 (CHONG KUN DANG PHARMACEUTICAL CORP., priority 2021, published 2024)
# Target: human adenosine A2a receptor (Homo sapiens (Human), UniProt P29274)
# Test: A2a receptor binding affinity, [3H]-NECA radioligand binding test
# Details: [3H]-NECA 37 nM; membrane from HEK-293 cells transfected with human adenosine A2a receptor
# In short: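 Membranes from HEK-293 cells expressing human A2a receptor were incubated with [3H]-NECA (final 37 nM) and compound for 1 h at room temperature in 50 mM Tris, 10 mM MgCl2, 1 mM EDTA, pH 7.4. Bound ligand was filtered on PEI-coated plates and counted by scintillation to derive IC50 (μM).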
# Chain of human adenosine A2a receptor (P29274 whole entry): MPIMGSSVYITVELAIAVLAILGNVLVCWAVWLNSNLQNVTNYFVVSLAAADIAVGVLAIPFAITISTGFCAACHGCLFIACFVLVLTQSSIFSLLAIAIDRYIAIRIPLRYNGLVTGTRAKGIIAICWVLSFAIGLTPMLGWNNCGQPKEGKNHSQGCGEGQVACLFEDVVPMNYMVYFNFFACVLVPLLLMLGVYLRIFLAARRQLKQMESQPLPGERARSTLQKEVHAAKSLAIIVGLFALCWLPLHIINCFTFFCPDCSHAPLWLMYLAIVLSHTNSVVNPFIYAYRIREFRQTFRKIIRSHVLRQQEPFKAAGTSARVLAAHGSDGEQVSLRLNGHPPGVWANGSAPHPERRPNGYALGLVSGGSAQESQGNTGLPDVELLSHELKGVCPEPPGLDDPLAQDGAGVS
row,IC50 [nM],Structure (SMILES)
1,2,"CCC(F)(F)CN1CCN(C(=O)[C@@H]2CCCN2c2nc(N)n3nc(-c4ccco4)nc3n2)CC1 [Example 225, (S)-(1-(7-amino-2-(furan-2-yl)-[1,2,4]triazolo[1,5-a][1,3,5]triazin-5-yl)pyrrolidin-2-yl)(4-(2,2-difluorobutyl)piperazin-1-yl)methanone]"
2,7,"Nc1nc(N2CCC[C@H]2C(=O)N2CCN(CC(F)(F)C(F)F)CC2)nc2nc(-c3ccco3)nn12 [Example 226, (S)-(1-(7-amino-2-(furan-2-yl)-[1,2,4]triazolo[1,5-a][1,3,5]triazin-5-yl)pyrrolidin-2-yl)(4-(2,2,3,3-tetrafluoropropyl)piperazin-1-yl)methanone]"
3,9,"Nc1nc(N2CCC[C@H]2C(=O)N2CCN(CC(F)(F)C(F)(F)F)CC2)nc2nc(-c3ccco3)nn12 [Example 227, (S)-(1-(7-amino-2-(furan-2-yl)-[1,2,4]triazolo[1,5-a][1,3,5]triazin-5-yl)pyrrolidin-2-yl)(4-(2,2,3,3,3-pentafluoropropyl)piperazin-1-yl)methanone]"
4,12,"CC(C)(O)CC(=O)N1CCN(C(=O)[C@@H]2CCCN2c2nc(N)n3nc(-c4ccco4)nc3n2)CC1 [Example 229, 1-(4-((7-amino-2-(furan-2-yl)-[1,2,4]triazolo[1,5-a][1,3,5]triazin-5-yl)-L-prolyl)piperazin-1-yl)-3-hydroxy-3-methylbutan-1-one]"
5,6,Nc1nc(N2CCC[C@H]2C(=O)N2CCN(C(=O)C3CCC(O)CC3)CC2)nc2nc(-c3ccco3)nn12 (stereo partly shown) [Example 230]
6,5,"Nc1nc(N[C@@H](CO)C(=O)N2CCN(CC(F)(F)F)CC2)nc2nc(-c3ccco3)nn12 [Example 231, (S)-2-((7-amino-2-(furan-2-yl)-[1,2,4]triazolo[1,5-a][1,3,5]triazin-5-yl)amino)-3-hydroxy-1-(4-(2,2,2-trifluoroethyl)piperazin-1-yl)propan-1-one]"
7,40,"CC(C)(F)CN1CCN(C(=O)[C@H](CO)Nc2nc(N)n3nc(-c4ccco4)nc3n2)CC1 [Example 232, (S)-2-((7-amino-2-(furan-2-yl)-[1,2,4]triazolo[1,5-a][1,3,5]triazin-5-yl)amino)-1-(4-(2-fluoro-2-methylpropyl)piperazin-1-yl)-3-hydroxypropan-1-one]"
8,14,"Nc1nc(N[C@@H](CO)C(=O)N2CCN(Cc3ccccc3)CC2)nc2nc(-c3ccco3)nn12 [Example 233, (S)-2-((7-amino-2-(furan-2-yl)-[1,2,4]triazolo[1,5-a][1,3,5]triazin-5-yl)amino)-1-(4-benzylpiperazin-1-yl)-3-hydroxypropan-1-one]"
9,12,Nc1nc(N[C@@H](CO)C(=O)N2CCN(c3ccccc3)C(=O)C2)nc2nc(-c3ccco3)nn12 [Example 234]
10,10,"Nc1nc(N[C@@H](CO)C(=O)N2CCN(c3ncccn3)CC2)nc2nc(-c3ccco3)nn12 [Example 235, (S)-2-((7-amino-2-(furan-2-yl)-[1,2,4]triazolo[1,5-a][1,3,5]triazin-5-yl)amino)-3-hydroxy-1-(4-(pyrimidin-2-yl)piperazin-1-yl)propan-1-one]"
11,2,"Nc1nc(N2CCC[C@H]2C(=O)N2CCN(c3ccc(F)cc3)C(=O)C2)nc2nc(-c3ccco3)nn12 [Example 236, 4-((7-amino-2-(furan-2-yl)-[1,2,4]triazolo[1,5-a][1,3,5]triazin-5-yl)-L-prolyl)-1-(4-fluorophenyl)piperazin-2-one]"
12,8,"Nc1nc(N2CCC[C@H]2C(=O)N2CCN(C(=O)CO)CC2)nc2nc(-c3ccco3)nn12 [Example 237, 1-(4-((7-amino-2-(furan-2-yl)-[1,2,4]triazolo[1,5-a][1,3,5]triazin-5-yl)-L-prolyl)piperazin-1-yl)-2-hydroxyethan-1-one]"
13,3,"Nc1nc(N2CCC[C@H]2C(=O)N2CCN(CC(F)(F)F)CC2)nc2sc(-c3ccco3)nc12 [Example 238, (S)-(1-(7-amino-2-(furan-2-yl)thiazolo[5,4-d]pyrimidin-5-yl)pyrrolidin-2-yl)(4-(2,2,2-trifluoroethyl)piperazin-1-yl)methanone]"
14,6,"Nc1nc(N2CCC[C@H]2C(=O)N2CCN(CCCC(F)(F)F)CC2)nc2nc(-c3ccco3)nn12 [Example 239, (S)-(1-(7-amino-2-(furan-2-yl)-[1,2,4]triazolo[1,5-a][1,3,5]triazin-5-yl)pyrrolidin-2-yl)(4-(4,4,4-trifluorobutyl)piperazin-1-yl) methanone]"
15,0.3,"C[C@H](Nc1nc(N)n2nc(-c3ccco3)nc2n1)C(=O)N1CCN(c2ncccn2)CC1 [Example 240, (S)-2-((7-amino-2-(furan-2-yl)-[1,2,4]triazolo[1,5-a][1,3,5]triazin-5-yl)amino)-1-(4-(pyrimidin-2-yl)piperazin-1-yl)propan-1-one]"
16,1,"Nc1nc(N[C@H](C(=O)N2CCN(c3ncccn3)CC2)C2CCOCC2)nc2nc(-c3ccco3)nn12 [Example 241, (S)-2-((7-amino-2-(furan-2-yl)-[1,2,4]triazolo[1,5-a][1,3,5]triazin-5-yl)amino)-1-(4-(pyrimidin-2-yl)piperazin-1-yl)-2-(tetrahydro-2H-pyran-4-yl)ethan-1-one]"
17,9,"Nc1nc(N2CC[C@H]2C(=O)N2CCN(c3ncccn3)CC2)nc2nc(-c3ccco3)nn12 [Example 242, (S)-(1-(7-amino-2-(furan-2-yl)-[1,2,4]triazolo[1,5-a][1,3,5]triazin-5-yl)azetidin-2-yl)(4-(pyrimidin-2-yl)piperazin-1-yl)methanone]"
18,14,"CCCCN1CCN(C(=O)[C@@H]2CCCN2c2nc(N)c3nc(-c4ccc(C)o4)sc3n2)CC1 [Example 243, (S)-(1-(7-amino-2-(5-methylfuran-2-yl)thiazolo[5,4-d]pyrimidin-5-yl)pyrrolidin-2-yl)(4-butylpiperazin-1-yl)methanone]"
19,4,"CC(C)(O)CN1CCC(C2CCN(C(=O)[C@@H]3CCCN3c3nc(N)n4nc(-c5ccco5)nc4n3)CC2)CC1 [Example 244, (S)-(1-(7-amino-2-(furan-2-yl)-[1,2,4]triazolo[1,5-a][1,3,5]triazin-5-yl)pyrrolidin-2-yl)(1′-(2-hydroxy-2-methylpropyl)-[4,4′-bipiperidin]-1-yl)methanone]"
20,15,"CC(C)(F)CN1CCC(C2CCN(C(=O)[C@@H]3CCCN3c3nc(N)n4nc(-c5ccco5)nc4n3)CC2)CC1 [Example 245, (S)-(1-(7-amino-2-(furan-2-yl)-[1,2,4]triazolo[1,5-a][1,3,5]triazin-5-yl)pyrrolidin-2-yl)(1′-(2-fluoro-2-methylpropyl)-[4,4′-bipiperidin]-1-yl)methanone]"
21,3,"COCCN1CCN(C(=O)[C@@H]2CCCN2c2nc(N)n3nc(-c4ccco4)nc3n2)CC1=O [Example 246, 4-((7-amino-2-(furan-2-yl)-[1,2,4]triazolo[1,5-a][1,3,5]triazin-5-yl)-L-prolyl)-1-(2-methoxyethyl)piperazin-2-one]"

row,Structure (SMILES),IC50 [nM]
1,"Nc1nc(N2CCC[C@H]2C(=O)N2CCN(CC(F)(F)C(F)(F)C(F)(F)F)CC2)nc2nc(-c3ccco3)nn12 [Example 228, (S)-(1-(7-amino-2-(furan-2-yl)-[1,2,4]triazolo[1,5-a][1,3,5]triazin-5-yl)pyrrolidin-2-yl)(4-(2,2,3,3,4,4,4-heptafluorobutyl)piperazin-1-yl)methanone]",2
